In series [1] the target is T1, HSV1 uracil-DNA glycosylase (HSV1 UDG) (Human herpesvirus 1, UniProt P10186).
T1 construct: made in house
The series can be described thus: Inhibition of HSV1 uracil-DNA glycosylase, [3H]uracil release from [3H]dUMP-containing DNA. Format: biochemical. The note with it: for Activity against viral UDG: at 200 μM; for Potency against HSV1 UDG relative to parent compound: hexAU derivatives vs 4, octAU derivatives vs 5. The method, then: (§1) Compounds 2-8 were screened against purified HSV1 and human (HeLa) uracil-DNA glycosylases which were isolated by conventional enzyme purification protocols^1. Assays for inhibition by the compounds were conducted as described in the literature^1 by measuring [^3 H]uracil release from [^3 H]dUMP-containing DNA, in the presence of varying concentrations of test compounds. Control assays contained the same concentration of diluent, dimethylsulfoxide. IC50 s (the concentration of compound that causes half-maximal inhibition of [^3 H]uracil release from [^3 H]dUMP-containing DNA) for each of the compounds were calculated.
(§2) a. Isolation and assay of uracil-DNA glycosylases. The viral and human (HeLa) uracil-DNA glycosylases are isolated with conventional enzyme purification protocols (Focher et al., 1993). Both long and short forms of the HSV1 enzyme have been cloned and expressed in E. Coli (Argnani et al., 1995), and have essentially identical enzymatic properties and inhibitor sensitivities. Assays for new inhibitors of viral and human UDG are done as described (Focher et al., 1993) by measuring [^3 H]uracil release from [^3 H]dUMP-DNA. Mechanism studies involve classical variable substrate assays to determine if inhibition is competitive with substrate or product.

Series [2] deals with T2, human (HeLa) uracil-DNA glycosylase (Homo sapiens, UniProt P13051).
T2 construct: The viral and human (HeLa) uracil-DNA glycosylases are isolated with conventional enzyme purification protocols; endogenous in cells; host or cells: HeLa
The series can be described thus: Inhibition of human (HeLa) uracil-DNA glycosylase, [3H]uracil release from [3H]dUMP-containing DNA. The note with it: Table 3; read-out: IC50 Human-UDG. In kind it is biochemical. On the procedure: as §1, §2

The target of series [3] is T2, human (HeLa) uracil-DNA glycosylase. The note with it: cited from earlier work; for IC50: compounds 4 and 5, from Focher et al., 1993, read-out: IC50 Human-UDG.
Series [4] addresses T1, HSV1 uracil-DNA glycosylase (HSV1 UDG). The following applies: cited from earlier work.
Series [5] in a line: Solubility observations (assay medium, water). In kind it is physicochemical.
The mark [6] stands for this setting: Table 2, read-out: IC50, experimental value.
The mark [7] stands for this setting: Table 3, read-out: IC50 HSV1-UDG.
Setting [8] is: Table 1, from literature (footnote a), read-out: IC50.
The mark [9] stands for this setting: compounds 4 and 5, from Focher et al., 1993, read-out: IC50 HSV1-UDG.

Here are results for 20 compounds from patent publication US6177437A, “Inhibitors of Herpes Simplex virus uracil-DNA glycosylase” (University of Massachusetts Medical Center, priority 1999, dated 2001).

Where two headings read alike, the source gives them in different places. Where only a bound is given, the exact number is not on record here.

T1 sequence (P10186 whole entry): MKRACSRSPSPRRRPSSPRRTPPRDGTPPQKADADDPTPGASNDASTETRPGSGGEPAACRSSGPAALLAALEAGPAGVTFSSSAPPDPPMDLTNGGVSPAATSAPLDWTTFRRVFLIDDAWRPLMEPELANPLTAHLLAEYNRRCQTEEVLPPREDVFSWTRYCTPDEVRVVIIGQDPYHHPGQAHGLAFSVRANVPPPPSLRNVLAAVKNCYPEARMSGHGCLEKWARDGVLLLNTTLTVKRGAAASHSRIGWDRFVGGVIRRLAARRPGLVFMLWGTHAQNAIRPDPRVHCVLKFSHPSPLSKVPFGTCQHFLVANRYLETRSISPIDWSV
T2 sequence (P13051 whole entry): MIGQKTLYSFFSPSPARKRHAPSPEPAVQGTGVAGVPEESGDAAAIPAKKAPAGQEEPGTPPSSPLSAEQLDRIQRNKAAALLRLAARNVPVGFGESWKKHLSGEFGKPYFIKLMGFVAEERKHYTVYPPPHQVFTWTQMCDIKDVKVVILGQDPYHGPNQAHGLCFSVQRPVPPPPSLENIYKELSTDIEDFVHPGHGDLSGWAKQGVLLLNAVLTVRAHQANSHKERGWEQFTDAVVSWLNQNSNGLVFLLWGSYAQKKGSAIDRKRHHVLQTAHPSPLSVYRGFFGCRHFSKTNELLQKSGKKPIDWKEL

In the case of `CCCCCCc1ccc(Nc2cc(=O)n(CC)c(=O)[nH]2)cc1` [3-ethyl-6-(4-n-hexylanilino)uracil], the “Activity against viral UDG” value in series [1] is “inactive”. A word on the IC50: it is the concentration at which inhibition is half-maximal. Consider `CCCCCCCCCCc1ccc(Nc2cc(O)nc(O)n2)cc1` [Compound 6, 6-(4-Decylanilino)uracil], for which the IC50 in series [1] (setting [6]) was 35 µM; in series [2] it was above 200 µM. Turning to `Nc1cc(=O)[nH]c(=O)[nH]1` [6-Aminouracil, reference compound], the half-maximal inhibitory concentration (IC50) in series [1] (text b184, read-out: IC50 HSV1 UDG) is 1000 µM. In addition, the “Inhibition of human UDG” value in series [3] (reported (Caradonna et al, 1981)) was “inhibit weakly”. Turning to `CCCCCCc1ccc(Nc2cc(=O)[nH]c(=O)n2CCO)cc1` [Compound 21, 1-(2-Hydroxyethyl)-6-(4-hexylanilino)uracil], in series [1] (setting [7]), the IC50 worked out at 20 µM. Moreover, in series [1], the “Potency against HSV1 UDG relative to parent compound” value was “equipotent with 4”.

Regarding `CCCCCCc1ccc(Nc2cc(=O)[nH]c(=O)n2CCCOC)cc1` [Compound 20, 1-(3-Methoxypropyl)-6-(4-hexylanilino)uracil], in series [1] (setting [7]), the IC50 was above 100 µM. As to `CCCCCCc1ccc(Nc2cc(=O)[nH]c(=O)n2C)cc1` [Compound 16, 1-Methyl-6-(4-hexylanilino)uracil], the IC50 in series [2] was above 200 µM. As to `CCCCCCCCc1ccc(Oc2cc(=O)[nH]c(=O)[nH]2)cc1` [Compound 9, 6-(4-Octylphenoxy)uracil], the IC50 in series [1] (read-out: IC50, experimental value) is 150 µM; in series [2] it was above 300 µM. `CCCCCCc1ccc(Nc2cc(O)nc(O)n2)cc1` [Compound 4, 6-(4-n-Hexylanilino)uracil]: the 50% inhibitory concentration (IC50) in series [4] (setting [8]) is 30 µM; in series [4] (setting [9]), 30 µM; in series [3] it was above 300 µM. Turning to `CCc1ccc(Nc2cc(O)nc(O)n2)cc1` [Compound 2], in series [4] (setting [8]), the IC50 was 500 µM. For `CCCCCCCCc1ccc(Nc2cc(=O)[nH]c(=O)[nH]2)cc1` [Compound 5, 6-(4-n-octylanilino)uracil], the “Mode of inhibition of HSV1 UDG” value in series [1] was “competitive with DNA”. Further, in series [5], the “Water solubility” value is recorded as “poor water solubility”. The IC50 is 8 µM in series [4] (setting [8]), 8 µM in series [4] (setting [9]) and above 300 µM in series [3]. Consider `O=c1cc[nH]c(=O)[nH]1` [uracil], for which the “Mode of inhibition of human UDG” value in series [3] (reported (Griffiths 1995)) is on record as “non-competitive”. Consider `CCCCCCc1ccc(Nc2[nH]c(=O)[nH]c(=O)c2C)cc1` [(4-n-hexylanilino)thymine, 6-(4-Hexylanilino)thymine], for which the “Activity against viral UDG” value in series [1] is “inactive”. Consider `CCCCCCc1ccc(Nc2cc(=O)[nH]c(=O)n2CCOC)cc1` [Compound 19, 1-(2-Methoxyethyl)-6-(4-hexylanilino)uracil], for which, in series [1] (setting [7]), the IC50 is above 100 µM. As for `CCCCCCc1ccc(Nc2cc(=O)[nH]c(=O)n2CC)cc1` [Compound 17, 1-Ethyl-6-(4-hexylanilino)uracil], the IC50 in series [2] is above 200 µM. `CCCCCCCCOc1ccc(Nc2cc(O)nc(O)n2)cc1` [Compound 8, 6-(4-Octyloxyanilino)uracil]: the half-maximal inhibitory concentration (IC50) in series [1] (setting [6]) was found to be 25 µM. Regarding `CCCCCCCCc1ccc(Nc2cc(=O)[nH]c(=O)n2CCO)cc1` [Compound 25, 1-(2-Hydroxyethyl)-6-(4-octylanilino)uracil], the IC50 in series [1] (setting [7]) is 10 µM. In addition, the “Potency against HSV1 UDG relative to parent compound” value in series [1] was “as a potent an inhibitor as 5”.

In the case of `CCCCCCCCc1ccc(Nc2cc(=O)[nH]c(=O)n2CCOC)cc1` [Compound 24, 1-(2-Methoxyethyl)-6-(4-octylanilino)uracil], the IC50 in series [1] (setting [7]) came out at 15 µM. Further, the “Potency against HSV1 UDG relative to parent compound” value in series [1] is “nearly as potent”. Turning to `CCCCCCc1ccc(Nc2cc(=O)[nH]c(=O)n2CCC)cc1` [Compound 18, 1-Propyl-6-(4-hexylanilino)uracil], the concentration for half-maximal inhibition (IC50) in series [2] is above 200 µM. As for `CCCCCCc1ccc(Nc2cc(=O)[nH]c(=O)n2CCCO)cc1` [Compound 22, 1-(3-Hydroxypropyl)-6-(4-hexylanilino)uracil], in series [1], the “Potency against HSV1 UDG, fold weaker than 4” value turned out to be 3 fold. Moreover, the IC50 in series [1] (read-out: IC50 HSV1-UDG) came to 90 µM. Regarding `CCCCCCOc1ccc(Nc2cc(O)nc(O)n2)cc1` [Compound 7, 6-(4-Hexyloxyanilino)uracil], in series [1] (setting [6]), the IC50 turned out to be 30 µM.
